In patent US20210069194A1, “COMBINATION THERAPY FOR THE TREATMENT OF CANCER” (MingSight Pharmaceuticals, Inc., priority 2018, published 2021):

Assays:
[1] = system: IL-6 production in TMD8 cells; assay: IL-6 assay (ELISA) in TMD8 cells; assay type: cell-based, Human; details: for Inhibition of IL-6 production: TMD8 cells (activating CD79 mutation), 48 hours
Procedure: (§1) TMD8 cells were grown in MEM media supplemented with 10% fetal calf serum (FCS), non-essential vitamin mix, and penicillin-streptomycin antibiotics (pen-strep). HBL1 cells were grown in RPMI-1640 media supplemented with 10% FCS and pen-strep. OCI-Ly3 cells were grown in DMEM media with 15% FCS, non-essential vitamin mix, pen-strep, and 25 mM HEPES buffer. Cells were maintained in suspension culture, fed twice weekly, and split 1:3 approximately every two weeks (TMD8, OCI-Ly3) or weekly (HBL1).
(§2) Cells were harvested via centrifugation and resuspended twice to rinse the media of any IL-6. Cells were then plated in 96 well plates at 5×10^5 cells per well and exposed to increasing concentrations of Compound A, sotrastaurin, or media containing 0.1% DMSO (negative control). For each cell type, experiments were performed in the media used for growth and maintenance. Cells were allowed to grow for 48 hours after plating in the presence of inhibitors. Following compound exposure, cells were pelleted in the 96 well plate, supernatant was removed, and the concentration of IL-6 in the supernatant was determined using R&D Systems Haman IL-6 Quantikine® ELISA Kit (D6050) according to manufacturer's instructions.

TMD8 cells [2] = assay: TMD8 mouse xenograph model of DLBCL, tumor volume; assay type: in vivo, SCID mice; details: 120 mg/kg BID
Procedure: (§3) To test the efficacy of Compound A in vivo, TMD8 cells were grown and subcutaneously injected into SCID mice. Large scale suspension culture of TMD8 cells was performed in T250 flasks, where cells were expanded weekly. Animals (n=24) were inoculated with 10×10^6 cells (10×10^6 cells in 100 μL volume of 50% Matrigel®) subcutaneously in the animal's right flank.

circulating lymphocytes = assay: Peripheral lymphocyte levels in healthy humans, multiple ascending dose study; assay type: in vivo, human; details: healthy humans, 50, 100, 150, 200 mg BID, 14 days
Procedure: Normal, healthy human patients received various doses of Compound A for 14 days of dosing. The dose levels were as follows: cohort 1: 50 mg, BID; cohort 2: 100 mg, BID; cohort 3, 150 mg, BID; and cohort 4,200 mg BID.

[3] = system: IL-6 production in HBL1 cells; assay: IL-6 assay (ELISA) in HBL1 cells; assay type: cell-based, Human; details: HBL1 cells (activating CD79 mutation), 48 hours, data not shown
TMD8 cells [4] = assay: Cell proliferation and survival assay (MTT), TMD8; assay type: cell-based, Human; details: for Inhibition of cell proliferation and survival: TMD8 cells, MTT, 96 hours
Procedure: (§4) TMD8 cells were grown in MEM media supplemented with 10% fetal calf serum (FCS), non-essential vitamin mix, and penicillin-streptomycin antibiotics (pen-strep). HBL1 cells were grown in RPMI-1640 media supplemented with 10% FCS and pen-strep. OCI-Ly3 cells were grown in DMEM media with 15% FCS, non-essential vitamin mix, pen-strep, and 25 mM HEPES buffer. Cells were maintained in suspension culture, fed twice weekly, and split 1:3 approximately every two weeks (TMD8, OCI-Ly3) or weekly (HBL1). Cells were cultured and maintained as described above, with cells always fed on the day prior to assay. Proliferation and survival of cells was quantified using an MTT assay kit according to manufacturer's instructions (Cell Proliferation Kit 1, Roche Diagnostics, Cat. No. 11 465 007 001). Experiments were performed in the same media used by each cell type for growth and maintenance. Cells (5×10^4) were plated in 96 well plates and allowed to grow for 96 hours in the presence of inhibitors. After the exposure period was completed, MTT reagent was added for 3-4 hours. The MTT solubilization reagent was then added to stop the reaction and cells were incubated overnight at 37° C. The plate read the next day according to the kit instructions.

Human PKC delta = Human PKC delta (Homo sapiens, UniProt Q05655); assay: PKC isoform inhibition in vitro assay, PKC delta; assay type: biochemical
Human PKC delta, sequence (Q05655 whole entry, canonical isoform): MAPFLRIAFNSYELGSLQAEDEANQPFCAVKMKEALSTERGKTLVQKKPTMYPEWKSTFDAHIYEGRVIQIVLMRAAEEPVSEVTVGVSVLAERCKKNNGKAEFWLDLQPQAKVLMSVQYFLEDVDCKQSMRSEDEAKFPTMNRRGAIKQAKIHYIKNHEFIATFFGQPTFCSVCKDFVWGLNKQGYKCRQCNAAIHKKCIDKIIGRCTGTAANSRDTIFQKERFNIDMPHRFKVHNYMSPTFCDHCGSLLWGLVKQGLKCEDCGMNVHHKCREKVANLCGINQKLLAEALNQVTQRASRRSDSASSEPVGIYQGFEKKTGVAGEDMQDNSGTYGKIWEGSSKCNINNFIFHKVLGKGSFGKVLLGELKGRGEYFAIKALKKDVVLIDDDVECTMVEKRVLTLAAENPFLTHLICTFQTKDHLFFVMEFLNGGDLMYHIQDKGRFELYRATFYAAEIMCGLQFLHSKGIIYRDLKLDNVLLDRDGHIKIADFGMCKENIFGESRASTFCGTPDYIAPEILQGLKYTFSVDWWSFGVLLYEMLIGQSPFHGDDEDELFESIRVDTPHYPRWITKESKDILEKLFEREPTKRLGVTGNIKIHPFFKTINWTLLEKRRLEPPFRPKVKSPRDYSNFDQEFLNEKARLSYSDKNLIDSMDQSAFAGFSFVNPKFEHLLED

OCI-Ly3 cells = assay: Cell proliferation and survival assay (MTT), OCI-Ly3; assay type: cell-based, Human; details: 96 hours
Procedure: as §4

[5] = TMD8 mouse xenograph model of DLBCL, body weight; assay type: in vivo, SCID mice; details: 120 mg/kg BID
Procedure: as §3

[6] = system: IL-6 production in OCI-Ly3 cells; assay: IL-6 assay (ELISA) in OCI-Ly3 cells; assay type: cell-based, Human; details: OCI-Ly3 cells (no activating CD79 mutation), 48 hours
Procedure: as §1, §2

HBL1 cells = assay: Cell proliferation and survival assay (MTT), HBL1; assay type: cell-based, Human; details: 96 hours, data not shown

Compound: Cc1ncc(F)c(Nc2n[nH]c3c2CN(C(=O)N2C[C@@H](C)N(CC4CCOCC4)C[C@@H]2C)C3(C)C)n1 [Compound A, 5-{[(2S,5R)-2,5-Dimethyl-4-(tetrahydro-2H-pyran-4-ylmethyl)piperazin-1-yl]carbonyl}-N-(5-fluoro-2-methylpyrimidin-4-yl)-6,6-dimethyl-1,4,5,6-tetrahydropyrrolo[3,4-c]pyrazol-3-amine]
- Potency compared to sotrastaurin, IL-6 assay [1]: slightly more potent
- Inhibition of IL-6 production [1]: dose-dependent inhibition
- Mean tumor volume (TMD8 cells [2]; study day 20): 898 mm^3
- Mean tumor volume (TMD8 cells [2]; study day 28): 970 mm^3
- Increase of mean tumor volume (TMD8 cells [2]; study days 20 to 28): 8%
- Tumor growth (in words) (TMD8 cells [2]; study days 20 to 28): no appreciable amounts of tumor growth
- Number of circulating lymphocytes (circulating lymphocytes): dose dependent increase
- Inhibition of IL-6 production [3]: dose-dependent inhibition
- Potency compared to sotrastaurin, cell proliferation assay (TMD8 cells [4]): modestly more potent
- Inhibition of cell proliferation and survival (TMD8 cells [4]): dose-dependent inhibition
- Inhibition of PKC delta (in words) (Human PKC delta): does not inhibit PKC delta to any appreciable degree
- Inhibition of cell proliferation and survival (OCI-Ly3 cells): not affected by either compound except at the highest doses tested
- Mean weight of vehicle treated group greater than Compound A treated animals by [5]: 1.8 g
- Body weight change ([5]; day 24-28): no increase in body weight
- Inhibition of IL-6 production [6]: not affected
- Inhibition of cell proliferation and survival (HBL1 cells): dose-dependent inhibition

Compound: CN1CCN(c2nc(C3=C(c4c[nH]c5ccccc45)C(=O)NC3=O)c3ccccc3n2)CC1 [sotrastaurin, reference compound]
- Inhibition of IL-6 production [1]: dose dependent inhibition
- Inhibition of cell proliferation and survival (TMD8 cells [4]): dose dependent inhibition
- Inhibition of cell proliferation and survival (OCI-Ly3 cells): not affected by either compound except at the highest doses tested
- Inhibition of IL-6 production [6]: not affected
